Assay results reported in ChEMBL document CHEMBL1145650, “5-Aryluracils as potent GnRH antagonists-Characterization of atropisomers” (Bioorg Med Chem Lett, 2008).

What was measured:
[1] = biological target: T1, Gonadotropin-releasing hormone receptor (Homo sapiens, UniProt P30968); assay: Antagonist activity at human GnRHR assessed as inhibition of calcium flux by IP3 assay; format: functional
T1 sequence (P30968 whole entry): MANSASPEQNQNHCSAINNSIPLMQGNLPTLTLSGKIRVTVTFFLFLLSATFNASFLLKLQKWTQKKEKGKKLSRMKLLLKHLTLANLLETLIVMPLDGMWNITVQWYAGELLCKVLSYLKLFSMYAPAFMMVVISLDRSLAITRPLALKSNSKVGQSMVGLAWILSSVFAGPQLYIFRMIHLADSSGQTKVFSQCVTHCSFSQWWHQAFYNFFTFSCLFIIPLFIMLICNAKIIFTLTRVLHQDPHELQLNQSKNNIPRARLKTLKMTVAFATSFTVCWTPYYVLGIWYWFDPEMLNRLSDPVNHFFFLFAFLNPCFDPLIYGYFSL

[2] = biological target: T1, Gonadotropin-releasing hormone receptor; assay: Binding affinity to human GnRHR

IC50 [1] [nM] | Ki [2] [nM] | SMILES
 | 3.7 | CC[C@@H](Cn1c(=O)c(-c2cccc(OC)c2Cl)c(C)n(Cc2c(F)cccc2C(F)(F)F)c1=O)NC1CCCC1
 | 4.2 | CC[C@@H](Cn1c(=O)c(-c2cccc(OC)c2F)c(C)n(Cc2c(F)cccc2C(F)(F)F)c1=O)NC1CCCC1
 | 33 | COc1cccc(-c2c(C)n(Cc3c(F)cccc3C(F)(F)F)c(=O)n(C[C@@H](C)NC3CCCC3)c2=O)c1F
 | 20 | CC[C@H](Cn1c(=O)c(-c2cccc(OC)c2F)c(C)n(Cc2c(F)cccc2C(F)(F)F)c1=O)NC1CCCC1
 | 7.4 | CC[C@H](Cn1c(=O)c(-c2cccc(OC)c2Cl)c(C)n(Cc2c(F)cccc2C(F)(F)F)c1=O)NC1CCCC1
3.3 | 0.61 | COc1cccc(-c2c(C)n(Cc3c(F)cccc3C(F)(F)F)c(=O)n(C[C@H](C)NC3CCCC3)c2=O)c1F
2.6 | 0.36 | COc1cccc(-c2c(C)n(Cc3c(F)cccc3C(F)(F)F)c(=O)n(C[C@H](CO)NC3CCCC3)c2=O)c1Cl (atropisomer R)

Continued, compound first:

SMILES | IC50 [1] [nM] | Ki [2] [nM]
COc1cccc(-c2c(C)n(Cc3c(F)cccc3C(F)(F)F)c(=O)n(C[C@H](C)NC3CCCC3)c2=O)c1Cl (single isomer, unassigned; form 2) | 1.5 | 0.3
COc1cccc(-c2c(C)n(Cc3c(F)cccc3F)c(=O)n(C[C@H](CO)NC3CCCC3)c2=O)c1F |  | 4.9
COc1cccc(-c2c(C)n(Cc3c(F)cccc3C(F)(F)F)c(=O)n(C[C@H](CO)NC3CCCC3)c2=O)c1Cl (single isomer, unassigned; atropisomer) | 2500 | 190
COc1cccc(-c2c(C)n(Cc3c(F)cccc3C(F)(F)F)c(=O)n(C[C@H](C)NC3CCCC3)c2=O)c1 |  | 4.5
COc1cccc(-c2c(C)n(Cc3c(F)cccc3C(F)(F)F)c(=O)n(C[C@H](CO)NC3CCCC3)c2=O)c1Cl | 5.4 | 0.7
COc1cccc(-c2c(C)n(Cc3c(F)cccc3C(F)(F)F)c(=O)n(C[C@H](C)NC3CCCC3)c2=O)c1Cl (single isomer, unassigned; form 1) | 385 | 61
